The results in this text go back to patent US5459131A, “Renin inhibitors” (American Cyanamid Company, priority 1991, dated 1995).

The target in the test is T1, human kidney renin (Homo sapiens, UniProt P00797).
T1 construct: Human renin is prepared from human kidney; from tissue; host or cells: human kidney
T1 sequence (P00797 67-406): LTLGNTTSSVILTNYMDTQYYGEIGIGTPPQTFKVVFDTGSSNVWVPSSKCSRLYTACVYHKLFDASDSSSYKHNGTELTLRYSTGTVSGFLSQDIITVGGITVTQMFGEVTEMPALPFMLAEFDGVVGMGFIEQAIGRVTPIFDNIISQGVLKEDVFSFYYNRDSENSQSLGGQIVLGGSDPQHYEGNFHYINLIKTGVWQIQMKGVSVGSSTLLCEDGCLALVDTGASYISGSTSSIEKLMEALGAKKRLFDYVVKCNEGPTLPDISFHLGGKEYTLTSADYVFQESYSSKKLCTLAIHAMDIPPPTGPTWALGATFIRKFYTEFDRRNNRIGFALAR
Kind of test: Radioimmunoassay screen for renin inhibitors (angiotensin I generation, then RIA quantitation). The class given is biochemical. As to conditions: purified human plasma angiotensinogen substrate, maleate buffer pH 6.0, 1 hour at 37° C.; read-out: Renin Inhibition IC50 Molar Concentration. The method, then: Radioimmunoassay Screen For Renin Inhibitors
The in vitro method for the screening of anti-renin compounds involves, first, angiotensin I generation, and second, the quantitation of the angiotensin I produced by radioimmunoassay.
The incubation medium consisted of 20 μl of purified human plasma angiotensinogen; (1) 10 μl of human kidney renin; (2) 5 μl of phenylmethylsulfonyl fluoride; 10 μl of disodium EDTA (10 mM); 10 μl of antirenin compound (5×10^-3 M, 5×10^-4 M, 5×10^-5 M) in dimethylformamide, or ethanol and a suitable amount of maleate buffer (77 mM, pH 6.0) to make a final volume of 500 μl . The reaction mixture is incubated for one hour at 37° C. and the enzymatic reaction is stopped by placing the tube in ice-cold water. The angiotensin I generated during the incubation is measured by a radioimmunoassay plasma renin activity kit (Clinical Assays, Inc.).
Radioimmunoassay Procedure
The incubation medium consisted of either 100 μl aliquots of the above reaction mixture or a standard amount of angiotensin I; 1000 μl of phosphate buffer (100 mM, pH 7.6) and 100 μl of (^125 I) angiotensin in a gamma-coat tube. After three hours of incubation at room temperature, the tubes are decanted, and the radioactivity of each tube is determined in a gamma counter. Duplicate determinations are performed for each incubation. The results are expressed in ng of angiotensin I generated per ml of generation medium per hour of incubation (ng/AI/ml/hr).
The results of this test on representative compounds of this invention appear in Table I, expressed as an IC50.
(1) The human plasma angiotensinogen derived from the blood of a person receiving oral contraceptive pills is purified by chromatography on a pepstatinaminohexyl-agarose column.
(2) Human renin is prepared from human kidney.

Turning to “[S-(R*,S*)]-1-cyclohexyl-2-[[2-[[1,4-dioxo-4-phenyl-2-(phenylmethyl)butyl]amino]-4-methyl-1-oxopentyl]amino]-4,7-epithio-1,2,4,5,6,7-hexadeoxy-L-arabino-Heptitol, (R and S)-S-oxide”, the IC50 was found to be 8.3 nM. The same measure for “[S-(R*,S*)]-4,7-anhydro-1-cyclohexyl-1,2,5,6-tetradeoxy-2-[[2-[[1,4-dioxo-2-(phenylmethyl)-4-(2-thienyl)butyl]amino]-4-methyl-1-oxo-pentyl]amino]-L-arabino-Heptitol”: 0.08 nM; for “[S-(R*,S*)]-1-cyclohexyl-1,2,4,5,6,7-hexadeoxy-2-[[2-[[1,4-dioxo-4-phenyl-2-(phenylmethyl)butyl]amino]-4-methyl-1-oxopentyl]amino]-4,7-epithio-L-arabino-Heptitol, [R (or S)]-S-oxide”: 12 nM.

In the case of “[S-(R*,S*)]-4,7-anhydro-1-cyclohexyl-1,2,5,6-tetradeoxy-2-[[4-methyl-2-[[4-[3-[(methylamino)sulfonyl]phenyl]-1,4-dioxo-2-(phenylmethyl)butyl]amino]-1-oxopentyl]amino]-L-arabino-Heptitol”, the IC50 worked out at 2.4 nM. “[S-(R*,S*)[-4,7-anhydro-2-[[2-[[4-(2-benzofuranyl)-1,4-dioxo-2-(phenylmethyl)butyl]amino]-3-(1H-imidazol-4-yl)-1-oxopropyl]amino]-1-cyclohexyl-1,2,5,6-tetradeosy-L-arabino-Heptitol”: the IC50 worked out at 1.5 nM. Turning to “[S-(R*,R*)]-4,7-anhydro-1-cyclohexyl-1,2,5,6-tetradeoxy-2-[[4-methyl-2-[[4-[3-[(methylamino)sulfonyl]phenyl]-1,4-dioxo-2-(phenylmethyl)buyhl]amino]-1-oxopentyl]amino]-L-arabino-Heptitol”, the IC50 is 71 nM. The same measure for “[S-(R*,S*)]-4,7-anhydro-1-cyclohexyl-1,2,5,6-tetradoxy-2-[[2-[[1,4-dioxo-4-phenyl-2-(phenylmethyl)butyl]amino]-4-methyl-1-oxopentyl]amino]-D-xylo-Heptitol”: 470 nM; for “[S-(R*,R*)]4,7-anhydro-2-[[2-[[4-(2-benzofuranyl)-1,4-dioxo-2-(phenylmethyl)butyl]amino]-3-(1H-imidazol-4-yl)-1-oxopropyl]amino]-1-cyclohexyl-1,2,5,6-tetradeoxy-L-arabino-Heptitol”: 42 nM.
